Here are results for 1 molecule from US20230340498A1, “COMPOSITIONS AND METHODS FOR INDUCIBLE ALTERNATIVE SPLICING REGULATION OF GENE EXPRESSION” (The Children's Hospital of Philadelphia, priority 2020, published 2023).

Assay [1] relates to SF3B3-on switch. Put plainly: Candidate minigene (SF3B3, BENC1, C12orf4, PDXDC2) switch-on luciferase assay in HEK293 cells. The assay is classed as cell-based, Human. On the procedure: (§1) Cell culture, transfection, and LMI070/RG7800 treatment. Human embryonic kidney (HEK293) cells (obtained from CHOP Research Vector Core stock) were maintained in DMEM media containing 10% Fetal Bovine Serum (FBS), 1% L-Glutamine and 1% penicillin/streptomycin at 37° C. with 5% CO2. Cells were cultured in 24 well plates and transfected at 80-90% confluence using Lipofectamine 2000 transfection reagent, according to the manufacturer’s protocol. For all experiments, 4 hours after plasmid transfection, cells were treated with LMI070 (MedChemExpress, HY-19620, suspended in DMSO) or RG7800 (MedChemExpress, HY-101792A, suspended in H2O) at the indicated concentrations. Cells were tested for mycoplasma by Research Vector Core. None of the cells used in the study were listed in ICLAC database of commonly misidentified cell lines.
In vitro luciferase assays. HEK293 cells were cultured in DMEM (10% FBS (v/v), 1% Pen/ Strep (v/v), and 1% L-glutamine (v/v) in a 24-well plate. At 70%-80% confluence, cells were co-transfected with the Xon.Firefly luciferase cassettes (0.3 µg/well) and a SV40p-Renilla luciferase cassette as transfection control (0.02 µg/well). Four hours after transfections cells were treated either with LMI070 or RG7800 at indicated concentrations. At 24 h after transfection, cells were rinsed with ice-cold PBS and Renilla and Firefly luciferase activities were assessed using the Dual-Luciferase Reporter Assay System (Promega) according to the manufacturer’s instructions. Luminescent readouts were obtained with a Monolight 3010 luminometer (Pharmigen). Relative light units (RLUs) were calculated as the quotient of […] RLUs and results expressed relative to mock treated control cells.
Next, a series of switch-on cassettes were developed from the top 4 LMI070-responsive exons found in the RNA-Seq dataset. […] HEK293 cells were transfected with the candidate cassettes, treated with LMI070, and luciferase activity or eGFP expression determined 24 h later. […]

In assay [2] the test system is SF3B3-on-eGFP cassette. The assay is described as follows: SF3B3-on-eGFP cassette expression in HEK293 cells. It counts as cell-based, Human. The note with it: LMI070 vs DMSO. The procedure:
as §1
Next, a series of switch-on cassettes were developed from the top 4 LMI070-responsive exons found in the RNA-Seq dataset. […] HEK293 cells were transfected with the candidate cassettes, treated with LMI070, and luciferase activity or eGFP expression determined 24 h later. […] Similarly, eGFP expression was only detected in cells transfected with the SF3B3-on-eGFP cassette in response to LMI070 treatment (FIG. 3D).

`CC1(C)CC(Oc2ccc(-c3ccc(-c4cn[nH]c4)cc3O)nn2)CC(C)(C)N1` [LMI070, 5-(1H-Pyrazol-4-yl)-2-(6-((2,2,6,6-tetramethylpiperidin-4-yl)oxy)pyridazin-3-yl)phenol]: the “luciferase expression of each candidate cassette in response to LMI070” value in assay [1] (SF3B3, BENC1, C12orf4, PDXDC2 cassettes, 24 h) is reported as “Increased luciferase expression”. The “luciferase induction of the SF3B3-on switch” value in assay [1] (in response to LMI070, relative to DMSO, 24 h) is on record as “more than 100 fold”. In assay [1] (original SF3B3-on construct compared with alternate intron cassettes), the “fold-change in luciferase activity in response to LMI070, original intron” value is > 200 fold. Further, in assay [2], the “eGFP expression from SF3B3-on-eGFP cassette” value is recorded as “only detected”.
